Test results reported in PubChem BioAssay AID248 (DTP/NCI, 2004).
Values joined by “and” are separate entries in the source; they are usually repeats but may differ in a detail not shown here. Equal entries are not always repeated. Inconclusive results and toxic doses are left out. Rule as the data show it: active = T/C of 150% or more; inactive = T/C below 125%.

System: L1210 leukemia ip in BDF1 mice, survival T/C
Test: NCI In Vivo Anticancer Drug Screen. Data for tumor model L1210 Leukemia (intraperitoneal) in B6D2F1 (BDF1) mice
Conditions: endpoint: mean survival time, higher = longer survival
How it was run: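 Survival endpoint. Drug-treated group vs vehicle group, expressed as T divided by C. Tumor passaged by transplantation.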

[1] = dose: 100.0 mg/kg/injection, schedule: Q04DX003 (ip), vehicle: saline with Tween-80
[2] = dose: 200.0 mg/kg/injection, schedule: Q04DX003 (ip), vehicle: saline with Tween-80
[3] = dose: 400.0 mg/kg/injection, schedule: Q04DX003 (ip), vehicle: saline with Tween-80
[4] = dose: 100.0 mg/kg/injection, schedule: Q01DX001 (ip), vehicle: carboxymethylcellulose (CMC)
[5] = dose: 200.0 mg/kg/injection, schedule: Q01DX001 (ip), vehicle: carboxymethylcellulose (CMC)
[6] = dose: 400.0 mg/kg/injection, schedule: Q01DX001 (ip), vehicle: carboxymethylcellulose (CMC)
[7] = dose: 100.0 mg/kg/injection, schedule: Q01DX009 (ip), vehicle: Klucel (hydroxypropylcellulose) (HPC)
[8] = dose: 100.0 mg/kg/injection, schedule: Q04DX003 (ip), vehicle: Klucel (hydroxypropylcellulose) (HPC)
[9] = dose: 200.0 mg/kg/injection, schedule: Q01DX009 (ip), vehicle: Klucel (hydroxypropylcellulose) (HPC)
[10] = dose: 400.0 mg/kg/injection, schedule: Q01DX009 (ip), vehicle: Klucel (hydroxypropylcellulose) (HPC)
[11] = dose: 400.0 mg/kg/injection, schedule: Q04DX003 (ip), vehicle: Klucel (hydroxypropylcellulose) (HPC)
[12] = dose: 50.0 mg/kg/injection, schedule: Q01DX001 (ip), vehicle: saline
[13] = dose: 100.0 mg/kg/injection, schedule: Q01DX001 (ip), vehicle: saline
[14] = dose: 200.0 mg/kg/injection, schedule: Q01DX001 (ip), vehicle: saline
[15] = dose: 400.0 mg/kg/injection, schedule: Q01DX001 (ip), vehicle: saline
[16] = dose: 100.0 mg/kg/injection, schedule: Q04DX002 (ip), vehicle: Klucel (hydroxypropylcellulose) (HPC)
[17] = dose: 200.0 mg/kg/injection, schedule: Q04DX002 (ip), vehicle: Klucel (hydroxypropylcellulose) (HPC)
[18] = dose: 400.0 mg/kg/injection, schedule: Q04DX002 (ip), vehicle: Klucel (hydroxypropylcellulose) (HPC)
[19] = dose: 100.0 mg/kg/injection, schedule: Q01DX009 (ip), vehicle: saline with Tween-80
[20] = dose: 100.0 mg/kg/injection, schedule: Q04DX002 (ip), vehicle: saline with Tween-80
[21] = dose: 200.0 mg/kg/injection, schedule: Q01DX009 (ip), vehicle: saline with Tween-80
[22] = dose: 400.0 mg/kg/injection, schedule: Q01DX009 (ip), vehicle: saline with Tween-80
[23] = dose: 200.0 mg/kg/injection, schedule: Q04DX003 (ip), vehicle: Klucel (hydroxypropylcellulose) (HPC)

Measured: T/C

NC(=O)N/N=C/C(c1ccccc1)c1ccccc1
inactive: [1] 96 % of control | [2] 94 % of control | [3] 103 % of control

COc1cc2c(cc1OC)CN1CCC(=O)CC1C2 (stereo not drawn)
inactive: dose: 100.0 mg/kg/injection, schedule: Q01DX001 (ip), vehicle: saline with Tween-80 107 % of control | dose: 200.0 mg/kg/injection, schedule: Q01DX001 (ip), vehicle: saline with Tween-80 102 % of control | dose: 400.0 mg/kg/injection, schedule: Q01DX001 (ip), vehicle: saline with Tween-80 106 % of control

CS(=O)c1ccc2c(c1)-c1ccccc1C2=O (stereo not drawn)
inactive: dose: 50.0 mg/kg/injection, schedule: Q01DX001 (ip), vehicle: carboxymethylcellulose (CMC) 95 % of control | [4] 101 % of control | [5] 95 % of control | [6] 101 % of control

CCOC(=O)C1CCCCCC1=O (stereo not drawn)
inactive: dose: 50.0 mg/kg/injection, schedule: Q01DX009 (ip), vehicle: saline 110 % of control | dose: 100.0 mg/kg/injection, schedule: Q01DX009 (ip), vehicle: saline 98 % of control | dose: 100.0 mg/kg/injection, schedule: Q04DX003 (ip), vehicle: alcohol 102 % of control | dose: 200.0 mg/kg/injection, schedule: Q01DX009 (ip), vehicle: saline 95 % of control | dose: 200.0 mg/kg/injection, schedule: Q04DX003 (ip), vehicle: alcohol 103 % of control | dose: 400.0 mg/kg/injection, schedule: Q04DX003 (ip), vehicle: alcohol 100 % of control

COc1cccc(C(=O)O)c1OS(=O)(=O)c1ccccc1
inactive: [7] 98 % of control | [8] 91 % of control | [9] 95 % of control | [10] 93 % of control | [11] 94 % of control

CN(C)CCCN1CC2CCCC1O2 (stereo not drawn)
inactive: [12] 90 % of control | [13] 102 % of control | [14] 100 % of control | [15] 94 % of control

C/C=C/C=C\COC(=O)C1CCCC1
inactive: dose: 100.0 mg/kg/injection, schedule: Q04DX002 (ip), vehicle: saline 103 % of control and 107 % of control | dose: 200.0 mg/kg/injection, schedule: Q04DX002 (ip), vehicle: saline 96 % of control and 98 % of control | dose: 400.0 mg/kg/injection, schedule: Q04DX002 (ip), vehicle: saline 107 % of control | dose: 600.0 mg/kg/injection, schedule: Q04DX002 (ip), vehicle: saline 107 % of control

O=C(Oc1c(-c2ccccc2)[nH]c2ccccc12)c1ccc([N+](=O)[O-])cc1
inactive: [16] 104 % of control | [17] 101 % of control | [18] 90 % of control

OCn1c(O)c2ccccc2c1N=Nc1ccccc1
inactive: [13] 95 % of control | [14] 95 % of control | [15] 95 % of control

CC(C)c1ccc(/C=C/C(=O)c2ccc(F)cc2)cc1
inactive: [19] 90 % of control | [20] 97 % of control | [21] 90 % of control | dose: 200.0 mg/kg/injection, schedule: Q04DX002 (ip), vehicle: saline with Tween-80 86 % of control | [22] 93 % of control | dose: 400.0 mg/kg/injection, schedule: Q04DX002 (ip), vehicle: saline with Tween-80 97 % of control

O=c1[nH]c(C(F)(F)F)nc2c1nc1n2CCC1
inactive: [19] 103 % of control | [1] 91 % of control | [21] 102 % of control | [2] 96 % of control | [22] 97 % of control | [3] 86 % of control

COc1ccc(Cc2ccccc2)c(O)c1
inactive: dose: 100.0 mg/kg/injection, schedule: Q01DX009 (ip), vehicle: other 93 % of control | dose: 100.0 mg/kg/injection, schedule: Q04DX003 (ip), vehicle: other 99 % of control | dose: 200.0 mg/kg/injection, schedule: Q01DX009 (ip), vehicle: other 111 % of control | dose: 200.0 mg/kg/injection, schedule: Q04DX003 (ip), vehicle: other 97 % of control | dose: 400.0 mg/kg/injection, schedule: Q04DX003 (ip), vehicle: other 91 % of control

Nc1ncc(CNc2ccc(C(=O)NC(CCC(=O)O)C(=O)O)cc2)c(N)n1 (stereo not drawn)
inactive: [4] 98 % of control | [5] 96 % of control | [6] 98 % of control

CCOc1ccc(C2(C)OC(=O)C3CCCCC32)c2ccccc12 (stereo not drawn)
inactive: dose: 100.0 mg/kg/injection, schedule: Q04DX003 (ip), vehicle: gum acacia 100 % of control | dose: 200.0 mg/kg/injection, schedule: Q04DX003 (ip), vehicle: gum acacia 95 % of control | dose: 400.0 mg/kg/injection, schedule: Q04DX003 (ip), vehicle: gum acacia 90 % of control

Cc1cc(C)c(NC(=O)Nc2cccc(Cl)c2)c(C)c1
inactive: [7] 100 % of control | [8] 101 % of control | [9] 105 % of control | [23] 94 % of control | [11] 89 % of control

Cc1nc2[nH]c(=S)[nH]c(=O)c2nc1C
inactive: dose: 16.0 mg/kg/injection, schedule: Q01DX Z (ip), vehicle: methylcellulose (MC) 95 % of control | dose: 31.0 mg/kg/injection, schedule: Q01DX Z (ip), vehicle: methylcellulose (MC) 119 % of control | dose: 62.0 mg/kg/injection, schedule: Q01DX Z (ip), vehicle: methylcellulose (MC) 89 % of control | dose: 125.0 mg/kg/injection, schedule: Q01DX Z (ip), vehicle: methylcellulose (MC) 95 % of control and 101 % of control | dose: 250.0 mg/kg/injection, schedule: Q01DX Z (ip), vehicle: methylcellulose (MC) 112 % of control | dose: 500.0 mg/kg/injection, schedule: Q01DX Z (ip), vehicle: methylcellulose (MC) 89 % of control

CCOC(=O)C1(C)Nc2ccc3ccccc3c2NC1=O (stereo not drawn)
inactive: [16] 93 % of control | [17] 101 % of control | [18] 101 % of control

CC(C)C(C=NCC(CCN1CCOCC1)(c1ccc2ccccc2c1)C(C)C)(CCN1CCOCC1)c1ccc2ccccc2c1 (stereo not drawn)
inactive: dose: 25.0 mg/kg/injection, schedule: Q04DX002 (ip), vehicle: saline with Tween-80 92 % of control | dose: 50.0 mg/kg/injection, schedule: Q04DX002 (ip), vehicle: saline with Tween-80 98 % of control | [20] 92 % of control

ClC1=C(Cl)[C@@]2(Cl)[C@H]3[C@H]4C[C@H]([C@@H]5O[C@H]45)[C@H]3[C@@]1(Cl)C2(Cl)Cl
inactive: dose: 1.0 mg/kg/injection, schedule: Q01DX009 (ip), vehicle: acetone 102 % of control | dose: 2.0 mg/kg/injection, schedule: Q01DX009 (ip), vehicle: acetone 93 % of control | dose: 4.0 mg/kg/injection, schedule: Q01DX009 (ip), vehicle: acetone 96 % of control | dose: 8.0 mg/kg/injection, schedule: Q01DX009 (ip), vehicle: acetone 86 % of control | dose: 25.0 mg/kg/injection, schedule: Q01DX001 (ip), vehicle: acetone 102 % of control

CCOC(=O)c1ccccc1NC(OCC)C(=O)c1ccccc1 (stereo not drawn) (tested in a mixture with another compound)
inactive: [13] 96 % of control | [14] 97 % of control | [15] 103 % of control

CN1CCN(CCNc2ccc(CO)c3sc4ccccc4c(=O)c23)CC1
inactive: dose: 31.25 mg/kg/injection, schedule: Q01DX009 (ip), vehicle: Klucel (hydroxypropylcellulose) (HPC) 100 % of control | dose: 62.5 mg/kg/injection, schedule: Q01DX009 (ip), vehicle: Klucel (hydroxypropylcellulose) (HPC) 97 % of control | dose: 125.0 mg/kg/injection, schedule: Q01DX009 (ip), vehicle: Klucel (hydroxypropylcellulose) (HPC) 105 % of control

Cn1cnccc1=S
inactive: dose: 25.0 mg/kg/injection, schedule: Q01DX001 (ip), vehicle: saline 96 % of control | [12] 108 % of control

Cc1ccc(S(=O)(=O)Oc2ccc(C(C)(C)c3ccc(OS(=O)(=O)c4ccc(C)cc4)cc3)cc2)cc1
inactive: [12] 98 % of control | [13] 93 % of control | [7] 96 % of control | [8] 93 % of control | [14] 93 % of control | [9] 91 % of control | [23] 95 % of control | [15] 90 % of control | [10] 91 % of control | [11] 98 % of control
